One assay addresses T1, human PPARdelta (Homo sapiens, UniProt Q03181).
T1 construct: human PPARdelta receptor (amino acids S139-Y441); expressed in transfected cells; host or cells: HEK cells, stably transfected (pcDNA3, CMV promoter)
T1 sequence (Q03181 139-441): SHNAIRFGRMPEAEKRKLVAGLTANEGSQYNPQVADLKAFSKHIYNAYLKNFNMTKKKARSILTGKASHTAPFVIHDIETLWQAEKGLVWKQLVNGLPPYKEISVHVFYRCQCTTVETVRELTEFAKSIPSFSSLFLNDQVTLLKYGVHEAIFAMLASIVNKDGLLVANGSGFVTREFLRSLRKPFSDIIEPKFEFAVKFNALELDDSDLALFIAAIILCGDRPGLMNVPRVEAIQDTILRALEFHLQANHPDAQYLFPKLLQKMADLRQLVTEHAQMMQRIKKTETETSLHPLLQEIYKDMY
The experiment in a line: Cellular PPARdelta assay (HEK PPARdelta reporter cell line, luciferase). The assay is classed as cell-based. Conditions: GR-GAL4-humanPPARdelta-LBD. How it is done: Determination of EC50 Values of PPAR Agonists in the Cellular PPARdelta Assay
(§1) The potency of substances which bind to human PPARdelta and activate it in an agonistic manner is analyzed using a stably transfected HEK cell line (HEK=human embryo kidney) which is referred to here as PPARdelta reporter cell line. In analogy to the assay described for PPARalpha, the PPARdelta reporter cell line also contains two genetic elements, a luciferase reporter element (pdeltaM-GAL4-Luc-Zeo) and a PPARdelta fusion protein (GR-GAL4-humanPPARdelta-LBD) which mediates expression of the luciferase reporter element depending on a PPARdelta ligand. The stably and constitutively expressed fusion protein GR-GAL4-humanPPARdelta-LBD binds in the cell nucleus of the PPARdelta reporter cell line via the GAL4 protein portion to the GAL4 DNA binding motifs 5′-upstream of the luciferase reporter element which is stably integrated in the genome of the cell line. There is only little expression of the luciferase reporter gene in the absence of a PPARdelta ligand if fatty acid-depleted fetal calf serum (cs-FCS) is used in the assay. PPARdelta ligands bind and activate the PPARdelta fusion protein and thereby stimulate expression of the luciferase reporter gene. The luciferase which is formed can be detected by means of chemiluminescence via an appropriate substrate.
The production of the stable PPARdelta reporter cell line is based on a stable HEK-cell clone which was stably transfected with a luciferase reporter element. This step was already described above in the section “construction of the PPARalpha reporter cell line”. In a second step, the PPARdelta fusion protein (GR-GAL4-humanPPARdelta-LBD was stably introduced into this cell clone. For this purpose, the cDNA coding for the N-terminal 76 amino acids of the glucocorticoid receptor (Accession # P04150) was linked to the cDNA section coding for amino acids 1-147 of the yeast transcription factor GAL4 (Accession # P04386). The cDNA of the ligand-binding domain of the human PPARdelta receptor (amino acids S139-Y441; Accession # L07592) was cloned in at the 3′-end of this GR-GAL4 construct. The fusion construct prepared in this way (GR-GAL4-humanPPARdelta-LBD) was recloned into the plasmid pcDNA3 (Invitrogen) in order to enable constitutive expression by the cytomegalovirus promoter. This plasmid was linearized with a restriction endonuclease and stably transfected into the previously described cell clone containing the luciferase reporter element. The resulting PPARdelta reporter cell line which contains a luciferase reporter element and constitutively expresses the PPARdelta fusion protein (GR-GAL4-human PPARdelta-LBD) was isolated by selection with zeocin (0.5 mg/ml) and G418 (0.5 mg/ml).
The activity of PPARdelta agonists is determined in a 3-day assay in exact analogy to the procedure already described for the PPARalpha reporter cell line except that the PPARdelta reporter cell line and a specific PPARdelta agonist was used as a standard to control test efficacy.

Another assay deals with T2, human PPARalpha (Homo sapiens, UniProt Q07869).
T2 construct: human PPARalpha receptor (amino acids S167-Y468); expressed in transfected cells; host or cells: HEK cells, stably transfected (pcDNA3, CMV promoter)
T2 sequence (Q07869 167-468): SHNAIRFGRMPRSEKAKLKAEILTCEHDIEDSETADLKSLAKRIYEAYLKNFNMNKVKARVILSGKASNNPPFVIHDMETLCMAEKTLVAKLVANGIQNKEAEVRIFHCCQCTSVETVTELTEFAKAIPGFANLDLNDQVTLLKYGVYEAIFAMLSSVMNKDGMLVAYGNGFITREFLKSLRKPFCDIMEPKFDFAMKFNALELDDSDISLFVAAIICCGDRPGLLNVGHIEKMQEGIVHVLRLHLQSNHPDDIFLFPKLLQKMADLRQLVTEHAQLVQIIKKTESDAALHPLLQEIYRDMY
Briefly: Cellular PPARalpha assay (HEK PPARalpha reporter cell line, luciferase). The assay is classed as cell-based. Conditions: GR-GAL4-humanPPARalpha-LBD. The protocol:
Determination of EC50 Values of PPAR Agonists in the Cellular PPARalpha Assay
as §1, with “PPARalpha” for “PPARdelta”, “It” for “In analogy to the assay described for PPARalpha, the PPARdelta reporter cell line also”, “(GR-GAL4-humanPPARalpha-LBD)” for “(GR-GAL4-humanPPARdelta-LBD)”, “GR-GAL4-humanPPARalpha-LBD” for “GR-GAL4-humanPPARdelta-LBD”, “weak” for “little”, “stimulate the” for “stimulate”
The PPARalpha reporter cell line was prepared in two stages. Firstly, the luciferase reporter element was constructed and stably transfected into HEK cells. For this purpose, five binding sites of the yeast transcription factor GAL4 (Accession # AF264724) were cloned in 5′-upstream of a 68 bp-long minimal MMTV promoter (Accession # V01175). The minimal MMTV promoter section contains a CCAAT box and a TATA element in order to enable efficient transcription by RNA polymerase II. The cloning and sequencing of the GAL4-MMTV construct took place in analogy to the description of Sambrook J. et al. (Molecular cloning, Cold Spring Harbor Laboratory Press, 1989). Then the complete Photinus pyralis gene (Accession # M15077) was cloned in 3′-downstream of the GAL4-MMTV element. After sequencing, the luciferase reporter element consisting of five GAL4 binding sites, MMTV promoter and luciferase gene was recloned into a plasmid which confers zeocin resistance in order to obtain the plasmid pdeltaM-GAL4-Luc-Zeo. This vector was transfected into HEK cells in accordance with the statements in Ausubel, F. M. et al. (Current protocols in molecular biology, Vol. 1-3, John Wiley & Sons, Inc., 1995).
In a second step, the PPARalpha fusion protein (GR-GAL4-humanPPARalpha-LBD was introduced into the stable cell clone described. For this purpose, initially the cDNA coding for the N-terminal 76 amino acids of the glucocorticoid receptor (Accession # P04150) was linked to the cDNA section coding for amino acids 1-147 of the yeast transcription factor GAL4 (Accession # P04386). The cDNA of the ligand-binding domain of the human PPARalpha receptor (amino acids S167-Y468; Accession # S74349) was cloned in at the 3′-end of this GR-GAL4 construct. The fusion construct prepared in this way (GR-GAL4-humanPPARalpha-LBD) was recloned into the plasmid pcDNA3 (Invitrogen) in order to enable constitutive expression therein by the cytomegalovirus promoter. This plasmid was linearized with a restriction endonuclease and stably transfected into the previously described cell clone containing the luciferase reporter element. The finished PPARalpha reporter cell line which contains a luciferase reporter element and constitutively expresses the PPARalpha fusion protein (GR-GAL4-human PPARalpha-LBD) was isolated by selection with zeocin (0.5 mg/ml) and G418 (0.5 mg/ml).
The activity of PPARalpha agonists is determined in a 3-day assay, which is described below: […]

For assay [1] the following is noted: diabetic animal model; cited from earlier work.
The conditions of assay [2]: obese, insulin resistant rhesus monkeys; cited from earlier work.

For `CCCCc1nc(-c2ccc(C(F)(F)F)cc2)sc1COc1ccc(Cc2noc(=O)[nH]2)c(Cl)c1` [Example 10, 3-{4-[4-Butyl-2-(4-trifluoromethyl-phenyl)-thiazol-5-ylmethoxy]-2-chloro-benzyl}-4H-[1,2,4]oxadiazol-5-one], the results for the EC50 on human PPARdelta and at human PPARalpha were 11 nM and 770 nM, respectively.
Taken in the same sequence, the figures for `Cc1nc(-c2ccc(C(F)(F)F)cc2)sc1CSc1ccc(-c2noc(=O)[nH]2)cc1` [Example 5, 3-{4-[4-Methyl-2-(4-trifluoromethyl-phenyl)-thiazole-5-ylmethylsulfanyl]-phenyl}-4H-[1,2,4]oxadiazole-5-one] were 68 nM and 1330 nM.
On to `O=c1[nH]c(-c2ccc(OCc3sc(-c4ccc(C(F)(F)F)cc4)nc3CCCCO)cc2Cl)no1` [Example 20, 3-{2-Chloro-4-[4-(4-hydroxy-butyl)-2-(4-trifluoromethyl-phenyl)-thiazol-5-ylmethoxy]-phenyl}-4H-[1,2,4]oxadiazol-5-one], for which the EC50 (as a rule, the concentration needed to bring the measured effect to its halfway point) at human PPARdelta is 55 nM; on human PPARalpha it was 1560 nM.
The matching figures for `CCCCc1nc(-c2ccc(C(F)(F)F)cc2)sc1COc1ccc(-c2noc(=O)[nH]2)c(OC)c1` [Example 18, 3-{4-[4-Butyl-2-(4-trifluoromethyl-phenyl)-thiazol-5-ylmethoxy]-2-methoxy-phenyl}-4H-[1,2,4]oxadiazol-5-one]: 15 nM and more than 10000 nM.
Taken in the same sequence, the figures for `Cc1nc(-c2ccc(C(F)(F)F)cc2)sc1COc1ccc(-c2noc(=O)[nH]2)c(Cl)c1` [Example 4, 3-{2-Chloro-4-[4-methyl-2-(4-trifluoromethyl-phenyl)-thiazole-5-ylmethoxy]-phenyl}-4H-[1,2,4]oxadiazole-5-one] were 56 nM and 1660 nM.
As for `CCCc1c(OCCCOc2ccc(OCC(=O)O)cc2)ccc(C(C)=O)c1O` [Example L-165041], the plasma cholesterol result in assay [1] is listed as “raises”.
As to `CCCCc1nc(-c2ccc(C(F)(F)F)cc2)sc1COc1cc(F)c(-c2noc(=O)[nH]2)c(F)c1` [Example 13, 3-{4-[4-Butyl-2-(4-trifluoromethyl-phenyl)-thiazol-5-ylmethoxy]-2,6-difluoro-phenyl}-4H-[1,2,4]oxadiazol-5-one], the results for the half-maximal effective concentration (EC50) on human PPARdelta and at human PPARalpha were 10 nM and 360 nM, respectively.
The matching figures for `CCCCc1nc(-c2ccc(C(F)(F)F)cc2)sc1COc1ccc(-c2noc(=O)[nH]2)c(C(F)(F)F)c1` [Example 15, 3-{4-[4-Butyl-2-(4-trifluoromethyl-phenyl)-thiazol-5-ylmethoxy]-2-trifluoromethyl-phenyl}-4H-[1,2,4]oxadiazol-5-one]: 3 nM and 150 nM.
With `Cc1oc(-c2ccc(-c3ccccc3)cc2)nc1COc1ccc(-c2noc(=O)[nH]2)c(Cl)c1` [Example 30, 3-[4-(2-Biphenyl-4-yl-5-methyl-oxazol-4-ylmethoxy)-2-chloro-phenyl]-4H-[1,2,4]oxadiazol-5-one], the values for the EC50 at human PPARdelta and at human PPARalpha were 16 nM and 250 nM, respectively.
Taken in the same sequence, the figures for `CCCCc1nc(-c2ccc(C(F)(F)F)cc2)sc1COCc1ccc(-c2noc(=O)[nH]2)c(F)c1` [Example 28, 3-{4-[4-Butyl-2-(4-trifluoromethyl-phenyl)-thiazol-5-ylmethoxymethyl]-2-fluoro-phenyl}-4H-[1,2,4]oxadiazol-5-one] were 23 nM and 120 nM.
`Cc1cc(SCc2sc(-c3ccc(C(F)(F)F)cc3)nc2C)ccc1OCC(=O)O` [GW501516]: in assay [2], the HDL-cholesterol entry is recorded as “raises”, the insulin levels result is reported as “decreases”, the “plasma LDL-cholesterol” value is given as “decreases” and the triglycerides entry is recorded as “decreases”.
Turning to `COCCOCc1nc(-c2ccc(C(F)(F)F)cc2)sc1COc1ccc(-c2noc(=O)[nH]2)c(Cl)c1` [Example 34, 3-{2-Chloro-4-[4-(2-methoxy-ethoxymethyl)-2-(4-trifluoromethyl-phenyl)-thiazol-5-ylmethoxy]-phenyl}-4H-[1,2,4]oxadiazol-5-one], the 50% effective concentration (EC50) at human PPARdelta turned out to be 1 nM; on human PPARalpha, 230 nM.
Taken in the same sequence, the figures for `Cc1sc(-c2ccc(S(F)(F)(F)(F)F)cc2)nc1CCOc1ccc(-c2noc(=O)[nH]2)c(Cl)c1` [Example 32] were 310 nM and 320 nM.
The matching figures for `O=c1[nH]c(-c2ccc(OCc3sc(-c4ccc(C(F)(F)F)cc4)nc3CCCOCc3ccccc3)cc2Cl)no1` [Example 50, 3-{4-[4-(3-Benzyloxy-propyl)-2-(4-trifluoromethyl-phenyl)-thiazol-5-ylmethoxy]-2-chloro-phenyl}-4H-[1,2,4]oxadiazol-5-one]: 0.7 nM and 420 nM.
